Marks after values point to notes of the source that are not given here. Where no end group is shown, it is not given here.
Legend:
GRPR [1] = target: GRPR (Homo sapiens, UniProt P30550); experiment: biochemical
Procedure: All experiments were performed in triplicate and 1 × 10^6 cells/dish were seeded one day before the experiment.

[2] = test system: GRPR-expressing PC-3 tumour xenograft; settings: 0.5 h after injection; co-injection of non-labelled NOTA-PEG4-RM26
Procedure: (§1) Animal studies were planned and performed in agreement with EU Directive 2010/63/EU for animal experiments and Swedish national legislation concerning protection of laboratory animals. Experiments were approved by the Ethics Committee for Animal Research in Uppsala (C4/16, 26 February 2016). Biodistribution studies were performed in female BALB/C nu/nu mice purchased from Scanbur A/S (Karlslunde, Denmark). GRPR-expressing xenografts were established by subcutaneous injection of 5 × 10^6 PC-3 cells/mouse in the right hind leg of mice 3 weeks before the experiment. The animals were randomized into groups of four mice for each data point.
Mice were euthanized followed by dislocation of their neck at 0.5 h after injection and blood samples were collected by heart puncture. At 3 and 24 h after injection, mice were euthanized by an intraperitoneal injection of anaesthetic solution (20 µL of solution per gram of body weight: Ketalar, 10 mg/mL; Rompun, 1 mg/mL) followed by heart puncture. […] The organ radioactivity was measured in a gamma-counter and uptake values of organs were calculated as percentage of injected dose per gram tissue (% ID/g). To test the in vivo binding specificity, a group of mice was co-injected with 7.5 nmol of non-labelled peptide (NOTA-PEG4-RM26), and biodistribution was measured at 0.5 h after injection.

[3] = test system: GRPR-expressing PC-3 tumour xenograft; experiment: in vivo; settings: 0.5 h after injection; 40 pmol i.v.; non-blocked
Procedure: as §1
(§2) Mice were euthanized followed by dislocation of their neck at 0.5 h after injection and blood samples were collected by heart puncture. At 3 and 24 h after injection, mice were euthanized by an intraperitoneal injection of anaesthetic solution (20 µL of solution per gram of body weight: Ketalar, 10 mg/mL; Rompun, 1 mg/mL) followed by heart puncture. Salivary glands, thyroid, lung, liver, spleen, pancreas, stomach, small intestine, kidneys, tumour, muscle, and bone were collected and weighed. The organ radioactivity was measured in a gamma-counter and uptake values of organs were calculated as percentage of injected dose per gram tissue (% ID/g). To test the in vivo binding specificity, a group of mice was co-injected with 7.5 nmol of non-labelled peptide (NOTA-PEG4-RM26), and biodistribution was measured at 0.5 h after injection.

in vivo = settings: mouse, iv, 40 pmol, Uptake, 40 pmol i.v.; for tissue uptake at 0.5 h: 0.5 h after injection; for tissue uptake at 3 h: 3 h after injection; for tissue uptake at 24 h: 24 h after injection
Procedure: as §1, §2

[4] = Procedure: Lipophilicity was determined as the logarithm of partition coefficient, logP, of the radiolabelled compound between n-octanol and water. To determine the lipophilicity of both radioconjugates, 500 µL of n-octanol was added to a tube containing the same volume of Milli-Q water. 1 pmol (10 kBq) of radioconjugate was added. The mixture was vigorously vortexed for 1–2 min and then centrifuged. Aliquots of 100 μL were taken from each phase and their radioactivity was measured by an automated gamma-counter. The partition coefficient was calculated as the average log of a ratio of the radioactivity in organic and aqueous fractions. Each measurement was repeated in triplicate.
GRPR [5] = test system: GRPR; design: method as in PMID 16818949, PMID 7876231; settings: within 20–40 min; cited from earlier work
[6] = small intestine, small intestine

Sequence of GRPR (Homo sapiens, UniProt P30550) (P30550 whole entry): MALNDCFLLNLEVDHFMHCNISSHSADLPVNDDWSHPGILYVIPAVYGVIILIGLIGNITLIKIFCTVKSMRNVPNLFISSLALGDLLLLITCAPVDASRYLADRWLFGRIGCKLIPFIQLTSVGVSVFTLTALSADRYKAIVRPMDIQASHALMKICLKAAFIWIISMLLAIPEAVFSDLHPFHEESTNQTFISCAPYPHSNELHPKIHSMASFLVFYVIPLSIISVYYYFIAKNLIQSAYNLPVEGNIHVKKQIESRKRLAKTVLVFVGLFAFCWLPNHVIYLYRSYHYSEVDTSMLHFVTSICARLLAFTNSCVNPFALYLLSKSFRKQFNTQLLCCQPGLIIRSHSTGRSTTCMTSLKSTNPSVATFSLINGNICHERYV

CC(C)C[C@H](NC(=O)C[C@H](O)[C@H](CC(C)C)NC(=O)[C@H](Cc1c[nH]cn1)NC(=O)CNC(=O)[C@@H](NC(=O)[C@H](C)NC(=O)[C@H](Cc1c[nH]c2ccccc12)NC(=O)[C@H](CCC(N)=O)NC(=O)[C@@H](Cc1ccccc1)NC(=O)COCCOCCNC(=O)[C@@H](N)Cc1ccc(O)cc1)C(C)C)C(N)=O [Tyr-PEG2-RM26, Tyrosine-PEG2-[D-Phe^6, Sta^13, Leu^14] bombesin[6–14]]
IC50 (GRPR [1]): 1.7 ± 0.3 nM

CC(C)C[C@H](NC(=O)C[C@H](O)[C@H](CC(C)C)NC(=O)[C@H](Cc1c[nH]cn1)NC(=O)CNC(=O)[C@@H](NC(=O)[C@H](C)NC(=O)[C@H](Cc1c[nH]c2ccccc12)NC(=O)[C@H](CCC(N)=O)NC(=O)[C@@H](Cc1ccccc1)NC(=O)COCCOCCNC(=O)CN1CCN(CC(=O)O)CCN(CC(=O)O)CCN(CC(=O)O)CC1)C(C)C)C(N)=O [[^111In]In-DOTA-PEG2-RM26, metal not drawn, reference compound]
Uptake in pancreas, blocked vs non-blocked group [2]: significant (p < 0.05) reduction
Uptake, tumour [3]: 13.2 ± 4.8 ^a,h % ID/g
tissue uptake at 0.5 h (in vivo; blood, blood): 2.1 ± 0.8 %ID/g
tissue uptake at 3 h (in vivo; blood, blood): 0.03 %ID/g
tissue uptake at 24 h (in vivo; blood, blood): 0.006 ± 0.002 %ID/g
tissue uptake at 0.5 h (in vivo; bone, bone): 0.6 ± 0.3 %ID/g
tissue uptake at 3 h (in vivo; bone, bone): 0.05 ± 0.02 %ID/g
tissue uptake at 0.5 h (in vivo; kidney, kidney): 9.1 ± 2.9 %ID/g
tissue uptake at 3 h (in vivo; kidney, kidney): 2.4 ± 0.3 %ID/g
tissue uptake at 0.5 h (in vivo; liver, liver): 0.8 ± 0.2 %ID/g
tissue uptake at 3 h (in vivo; liver, liver): 0.2 %ID/g
tissue uptake at 24 h (in vivo; liver, liver): 0.1 %ID/g
tissue uptake at 0.5 h (in vivo; lung, lung): 1.8 ± 0.4 %ID/g
tissue uptake at 3 h (in vivo; lung, lung): 0.1 %ID/g
tissue uptake at 0.5 h (in vivo; muscle, muscle): 0.4 ± 0.1 %ID/g
tissue uptake at 3 h (in vivo; muscle, muscle): 0.02 %ID/g
tissue uptake at 0.5 h (in vivo; pancreas, pancreas): 6.5 ± 1.4 %ID/g
tissue uptake at 3 h (in vivo; pancreas, pancreas): 0.2 %ID/g
tissue uptake at 0.5 h (in vivo; salivary gland, salivary gland): 0.8 ± 0.2 %ID/g
tissue uptake at 3 h (in vivo; salivary gland, salivary gland): 0.07 ± 0.02 %ID/g
tissue uptake at 0.5 h (in vivo; [6]): 1.5 ± 0.5 %ID/g
tissue uptake at 3 h (in vivo; [6]): 0.2 ± 0.1 %ID/g
tissue uptake at 0.5 h (in vivo; spleen, spleen): 0.6 ± 0.2 %ID/g
tissue uptake at 3 h (in vivo; spleen, spleen): 0.1 %ID/g
tissue uptake at 0.5 h (in vivo; stomach, stomach): 2.9 ± 1.1 %ID/g
tissue uptake at 0.5 h (in vivo; thyroid, thyroid): 1.1 ± 0.5 %ID/g
tissue uptake at 3 h (in vivo; thyroid, thyroid): 0.1 %ID/g
tissue uptake at 0.5 h (in vivo; tumour, tumour, non-blocked): 13 ± 5 %ID/g
tissue uptake at 3 h (in vivo; tumour, tumour): 9.6 ± 0.6 %ID/g
tissue uptake at 24 h (in vivo; tumour, tumour): 3.6 ± 1.3 %ID/g
logP [4]: -2.6 ± 0.4

[^125I]I-GRP: agonistic radioiodinated gastrin-releasing peptide (VPLPAGGGTVLTKMYPRGNHWAVGHLM; ends and bridges not checked; also: 125I radioiodination, position not given here; UniProt P07492 24-50, looked up)
Internalization (GRPR [5]): 75–80%
